{"source": "PubChem BioAssay (NCI)", "test_in_all_cases": "growth of human tumour cells (NCI), 48 h", "key": {"UACC-62 melanoma": {"system": "UACC-62 melanoma"}, "OVCAR-8 ovarian": {"system": "OVCAR-8 ovarian"}, "NCI-H522 lung": {"system": "NCI-H522 lung"}, "HCC-2998 colon": {"system": "HCC-2998 colon"}, "OVCAR-4 ovarian": {"system": "OVCAR-4 ovarian"}, "HOP-62 NSCLC": {"system": "HOP-62 NSCLC"}, "UO-31 renal": {"system": "UO-31 renal"}, "HCT-15 colon": {"system": "HCT-15 colon"}, "RXF-631 renal": {"system": "RXF-631 renal"}, "CCRF-CEM leukemia": {"system": "CCRF-CEM leukemia"}, "COLO 205 colon": {"system": "COLO 205 colon"}, "LOX IMVI melanoma": {"system": "LOX IMVI melanoma"}, "HOP-92 NSCLC": {"system": "HOP-92 NSCLC"}, "HL-60(TB) leukemia": {"system": "HL-60(TB) leukemia"}, "SF-539 CNS": {"system": "SF-539 CNS"}, "SF-295 CNS": {"system": "SF-295 CNS"}, "OVCAR-3 ovarian": {"system": "OVCAR-3 ovarian"}, "SF-268 CNS": {"system": "SF-268 CNS"}, "SNB-78 CNS": {"system": "SNB-78 CNS"}, "IGROV1 ovarian": {"system": "IGROV1 ovarian"}, "RXF 393 renal": {"system": "RXF 393 renal"}, "NCI-H460 lung": {"system": "NCI-H460 lung"}, "KM12 colon": {"system": "KM12 colon"}, "TK-10 renal": {"system": "TK-10 renal"}, "UACC-257 melanoma": {"system": "UACC-257 melanoma"}, "SK-MEL-28 melanoma": {"system": "SK-MEL-28 melanoma"}, "XF 498 CNS": {"system": "XF 498 CNS"}, "MOLT-4 leukemia": {"system": "MOLT-4 leukemia"}, "ACHN renal": {"system": "ACHN renal"}, "EKVX NSCLC": {"system": "EKVX NSCLC"}, "OVCAR-5 ovarian": {"system": "OVCAR-5 ovarian"}, "786-0 renal": {"system": "786-0 renal"}, "RPMI-8226 leukemia": {"system": "RPMI-8226 leukemia"}, "LXFL 529 NSCLC": {"system": "LXFL 529 NSCLC"}, "HCT-116 colon": {"system": "HCT-116 colon"}, "SNB-75 CNS": {"system": "SNB-75 CNS"}, "SNB-19 CNS": {"system": "SNB-19 CNS"}, "NCI-H23 lung": {"system": "NCI-H23 lung"}, "HT29 colon": {"system": "HT29 colon"}, "K-562 leukemia": {"system": "K-562 leukemia"}, "KM20L2 colon": {"system": "KM20L2 colon"}, "SK-OV-3 ovarian": {"system": "SK-OV-3 ovarian"}, "U251 CNS": {"system": "U251 CNS"}, "SK-MEL-5 melanoma": {"system": "SK-MEL-5 melanoma"}, "A549 NSCLC": {"system": "A549 NSCLC"}, "M14 melanoma": {"system": "M14 melanoma"}, "MALME-3M melanoma": {"system": "MALME-3M melanoma"}, "SW-620 colon": {"system": "SW-620 colon"}, "SK-MEL-2 melanoma": {"system": "SK-MEL-2 melanoma"}, "DMS 273 small cell lung": {"system": "DMS 273 small cell lung"}, "DLD-1 colon": {"system": "DLD-1 colon"}, "M19-MEL melanoma": {"system": "M19-MEL melanoma"}, "CAKI-1 renal": {"system": "CAKI-1 renal"}, "A498 renal": {"system": "A498 renal"}, "SN12C renal": {"system": "SN12C renal"}, "HOP-18 NSCLC": {"system": "HOP-18 NSCLC"}}, "note": "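How tested: cells in 96-well plates exposed to compound for 48 hours at five concentrations. Definition used: TGI = concentration required for complete inhibition of growth.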", "data": [{"smiles": "Cc1cc(C)nc(NS(=O)(=O)c2ccc(NC(=O)c3cccc4c(Nc5ccc(S(=O)(=O)N=C(N)N)cc5)c5ccccc5nc34)cc2)n1", "values": [{"measurement": "TGI", "setting": "UACC-62 melanoma", "value": "> 100", "unit": "µM"}, {"measurement": "TGI", "setting": "OVCAR-8 ovarian", "value": "> 100", "unit": "µM"}, {"measurement": "TGI", "setting": "NCI-H522 lung", "value": "> 100", "unit": "µM"}, {"measurement": "TGI", "setting": "HCC-2998 colon", "value": 22.6, "unit": "µM"}, {"measurement": "TGI", "setting": "OVCAR-4 ovarian", "value": 43.7, "unit": "µM"}, {"measurement": "TGI", "setting": "HOP-62 NSCLC", "value": 94.3, "unit": "µM"}, {"measurement": "TGI", "setting": "UO-31 renal", "value": "> 100", "unit": "µM"}, {"measurement": "TGI", "setting": "HCT-15 colon", "value": "> 100", "unit": "µM"}, {"measurement": "TGI", "setting": "RXF-631 renal", "value": "> 100", "unit": "µM"}, {"measurement": "TGI", "setting": "CCRF-CEM leukemia", "value": "> 100", "unit": "µM"}, {"measurement": "TGI", "setting": "COLO 205 colon", "value": "> 100", "unit": "µM"}, {"measurement": "TGI", "setting": "LOX IMVI melanoma", "value": "> 100", "unit": "µM"}, {"measurement": "TGI", "setting": "HOP-92 NSCLC", "value": 81.7, "unit": "µM"}, {"measurement": "TGI", "setting": "HL-60(TB) leukemia", "value": 26.6, "unit": "µM"}, {"measurement": "TGI", "setting": "SF-539 CNS", "value": "> 100", "unit": "µM"}, {"measurement": "TGI", "setting": "SF-295 CNS", "value": "> 100", "unit": "µM"}, {"measurement": "TGI", "setting": "OVCAR-3 ovarian", "value": 35.5, "unit": "µM"}, {"measurement": "TGI", "setting": "SF-268 CNS", "value": "> 100", "unit": "µM"}, {"measurement": "TGI", "setting": "SNB-78 CNS", "value": 99.2, "unit": "µM"}, {"measurement": "TGI", "setting": "IGROV1 ovarian", "value": "> 100", "unit": "µM"}, {"measurement": "TGI", "setting": "RXF 393 renal", "value": 52, "unit": "µM"}, {"measurement": "TGI", "setting": "NCI-H460 lung", "value": "> 100", "unit": "µM"}, {"measurement": "TGI", "setting": "KM12 colon", "value": 26.9, "unit": "µM"}, {"measurement": "TGI", "setting": "TK-10 renal", "value": 92.3, "unit": "µM"}, {"measurement": "TGI", "setting": "UACC-257 melanoma", "value": 60, "unit": "µM"}, {"measurement": "TGI", "setting": "SK-MEL-28 melanoma", "value": 99.8, "unit": "µM"}, {"measurement": "TGI", "setting": "XF 498 CNS", "value": "> 100", "unit": "µM"}, {"measurement": "TGI", "setting": "MOLT-4 leukemia", "value": "> 100", "unit": "µM"}, {"measurement": "TGI", "setting": "ACHN renal", "value": "> 100", "unit": "µM"}, {"measurement": "TGI", "setting": "EKVX NSCLC", "value": 83.2, "unit": "µM"}, {"measurement": "TGI", "setting": "OVCAR-5 ovarian", "value": "> 100", "unit": "µM"}, {"measurement": "TGI", "setting": "786-0 renal", "value": 83.6, "unit": "µM"}, {"measurement": "TGI", "setting": "RPMI-8226 leukemia", "value": "> 100", "unit": "µM"}, {"measurement": "TGI", "setting": "LXFL 529 NSCLC", "value": 59.1, "unit": "µM"}, {"measurement": "TGI", "setting": "HCT-116 colon", "value": "> 100", "unit": "µM"}, {"measurement": "TGI", "setting": "SNB-75 CNS", "value": "> 100", "unit": "µM"}, {"measurement": "TGI", "setting": "SNB-19 CNS", "value": "> 100", "unit": "µM"}, {"measurement": "TGI", "setting": "NCI-H23 lung", "value": "> 100", "unit": "µM"}, {"measurement": "TGI", "setting": "HT29 colon", "value": "> 100", "unit": "µM"}, {"measurement": "TGI", "setting": "K-562 leukemia", "value": "> 100", "unit": "µM"}, {"measurement": "TGI", "setting": "KM20L2 colon", "value": "> 100", "unit": "µM"}, {"measurement": "TGI", "setting": "SK-OV-3 ovarian", "value": "> 100", "unit": "µM"}, {"measurement": "TGI", "setting": "U251 CNS", "value": "> 100", "unit": "µM"}, {"measurement": "TGI", "setting": "SK-MEL-5 melanoma", "value": "> 100", "unit": "µM"}, {"measurement": "TGI", "setting": "A549 NSCLC", "value": "> 100", "unit": "µM"}, {"measurement": "TGI", "setting": "M14 melanoma", "value": "> 100", "unit": "µM"}, {"measurement": "TGI", "setting": "MALME-3M melanoma", "value": "> 100", "unit": "µM"}, {"measurement": "TGI", "setting": "SW-620 colon", "value": 42.4, "unit": "µM"}, {"measurement": "TGI", "setting": "SK-MEL-2 melanoma", "value": "> 100", "unit": "µM"}, {"measurement": "TGI", "setting": "DMS 273 small cell lung", "value": 80.6, "unit": "µM"}, {"measurement": "TGI", "setting": "DLD-1 colon", "value": 42.8, "unit": "µM"}, {"measurement": "TGI", "setting": "M19-MEL melanoma", "value": "> 100", "unit": "µM"}, {"measurement": "TGI", "setting": "CAKI-1 renal", "value": 55.2, "unit": "µM"}, {"measurement": "TGI", "setting": "A498 renal", "value": "> 100", "unit": "µM"}, {"measurement": "TGI", "setting": "SN12C renal", "value": "> 100", "unit": "µM"}, {"measurement": "TGI", "setting": "HOP-18 NSCLC", "value": "> 100", "unit": "µM"}]}]}
